From PubChem BioAssay (NCI)
Several values for one entry are separate records, joined by “and”; a condition that tells them apart may be missing. Equal entries are not always repeated.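 Five concentrations, 48 hours, 96-well plates. Abbreviation: GI50, concentration required for 50% inhibition of growth. Definition used: TGI = concentration required for complete inhibition of growth.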

Experiments:
Test in all cases: NCI tumour cell line growth inhibition, 48 h
[1] = test system: XF 498 CNS
[2] = test system: RXF-631 renal
[3] = test system: DLD-1 colon
[4] = test system: M19-MEL melanoma
[5] = test system: DMS 114 small cell lung
[6] = test system: SNB-78 CNS
[7] = test system: DMS 273 small cell lung
[8] = test system: KM20L2 colon
[9] = test system: LXFL 529 NSCLC
[10] = test system: P388 leukemia
[11] = test system: SN12K1 renal
[12] = test system: P388/ADR leukemia

SMILES	TGI [1] [µM]	TGI [2] [µM]	TGI [3] [µM]	TGI [4] [µM]	TGI [5] [µM]	TGI [6] [µM]	TGI [7] [µM]	TGI [8] [µM]	TGI [9] [µM]	GI50 [8]	TGI [10] [µM]	TGI [11] [µM]	TGI [12] [µM]
N#CCCN(CCC#N)c1ccc(/C=C(/NC(=O)Nc2ccccc2Cl)NC(=O)c2cc([N+](=O)[O-])ccc2Cl)cc1	> 100	> 100	> 100	> 100	> 100	> 100	> 100	> 100	> 100				
O=C(NCc1ccccc1)C1C(=O)C(=O)N(Cc2ccccc2)C1=O (stereo not given)		> 100	> 100	> 100		> 100	> 100	> 100	> 100				
Cc1cc(C)c(C(=O)C(C)C(c2ccccc2)c2ccc(Cl)cc2)c(C)c1 (stereo not given)	> 100	> 100	> 100	> 100	> 100			> 100	> 100	> 100 µM and 47.2 µM			
CCC(=O)CCC1=Nc2nnc(CCCCc3nnc4n3C(=O)C(CCC(=O)CC)=N4)n2C1=O	> 100		> 100	> 100	> 100		> 100	> 100	> 100				
COc1ccc(/C=C/c2nc(=S)[nH][nH]2)cc1OC	> 100		> 100	> 100	> 100	> 100	> 100	> 100	> 100				
CC1OC(CC2C=CCc3c(O)c4c(c(O)c32)C(=O)c2ccccc2C4=O)CC(NC(=O)C(F)(F)F)C1O (stereo not given)	14.6		20	21.1	26.8	14.9	19.7	55.3	20.4				
O=S(=O)(CF)OCCCCOS(=O)(=O)CF		> 100		> 100	> 100	> 100	> 100	> 100	> 100				
CCCCCCCCCCCCCCCCCCOCC(O)CO (stereo not given)	> 25		> 25	24.6	> 25	> 25	> 7.73	> 25			> 14.1	> 25	> 25
CC(O)C1OC(n2ccc(=O)[nH]c2=O)CC1n1cncn1 (stereo not given)	> 100		> 100	> 100	> 100		> 100	> 100	> 100				
CN(C(=O)c1ccccc1)c1ccc2c(c1)C(=O)c1ccccc1C2=O	> 100			> 100	> 100		> 100	> 100	> 100				
COC(=O)/C(=N\N)C(C(=O)C(=O)Nc1nc(=S)[nH][nH]1)c1nc2ccc([N+](=O)[O-])cc2[nH]c1=O (stereo not given)		> 100	> 100	> 100	> 100	> 100	> 100	> 100	> 100				
CC(=O)OCC1=CC2CCC3C(C)(CCC[C@]3(C)COC(C)=O)C23CC[C@H]1C3 (stereo not given in full)	81.9	> 100	> 100	> 100	44.3		> 100	> 100	> 100				
CCOC(=O)c1ccn2c(c1)c(C#N)c1nc3ccccc3nc12	93.3		> 100	> 100	> 100	57.6	> 100	> 100	> 100				
CC(C)=CCOc1ccc(-c2coc3cc4c(c(O)c3c2=O)C=CC(C)(C)O4)cc1	> 100		> 100	> 100	> 100	> 100		> 100	> 100				
Cn1c(=O)[nH]c2c(c1=O)C(=O)CN2	> 100		> 100	> 100	> 100	> 100	> 100	> 100	> 100				
COC(=O)C(=O)C(C(C)=O)C(=O)C(=O)Nc1ccc(C)cc1C (stereo not given)	> 100		> 100	> 100	> 100		> 100	> 100	> 100				
COC1(C)CNCC(C)(C)NC(=O)C(C)(OC)CNCC(C)(C)NC1=O (stereo not given)		> 100	> 100	> 100	> 100	> 100	> 100	> 100	> 100				
CCCCCC(/C=C/c1ncccc1OCCCCCC(=O)O)=N\NC1=NCCN1	54.8			> 100	> 100		> 100	> 100	> 100				
C[Si](C)(C)/C=C/CN1C(=O)CCC1=O	> 100		> 100	> 100	> 100	> 100	> 100	> 100	> 100				
CC(=O)OCC1OC(n2c(O)c(N=NC(N)=S)c3ccc([N+](=O)[O-])cc32)C(OC(C)=O)C1OC(C)=O (stereo not given)	94.7		> 100	38.3	61.9	> 100	57.5	> 100	> 100				
C/C(=C\CC/C=C(\C)CC/C=C(\C)CCC1SC1(C)C)CC/C=C(\C)CCC1OC1(C)C (stereo not given)	> 100		> 100	> 100	> 100		> 100	> 100	> 100				
